The text below walks through data of patent publication US8653263B2 (Janssen Pharmaceutica, priority 2009, dated 2014).

Sequence of human orexin-2 receptor (O43614 whole entry): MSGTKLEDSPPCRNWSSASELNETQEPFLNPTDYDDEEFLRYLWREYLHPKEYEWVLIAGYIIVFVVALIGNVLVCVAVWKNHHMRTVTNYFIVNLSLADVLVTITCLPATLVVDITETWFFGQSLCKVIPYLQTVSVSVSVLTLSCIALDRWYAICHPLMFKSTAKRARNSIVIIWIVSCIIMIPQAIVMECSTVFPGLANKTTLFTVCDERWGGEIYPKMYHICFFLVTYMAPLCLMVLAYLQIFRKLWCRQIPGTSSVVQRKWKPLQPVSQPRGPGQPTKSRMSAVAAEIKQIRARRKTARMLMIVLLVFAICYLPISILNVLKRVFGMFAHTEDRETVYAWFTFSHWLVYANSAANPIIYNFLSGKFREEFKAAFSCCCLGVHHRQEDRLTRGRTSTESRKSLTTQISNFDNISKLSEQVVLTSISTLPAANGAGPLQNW

The assay concerns the target human orexin-2 receptor (Homo sapiens (Human), UniProt O43614). Nature of the assay: Human orexin 2 receptor radioligand binding ([3H]-EMPA competition). The conditions noted are these: HEK293 cells stably expressing human orexin-2 receptor; [3H]-EMPA 5 nM final; apparent Ki=IC50/(1+C/Kd), Kd=2 nM; read-out: OR 2 Ki.
With `Cc1cc(N2CC3CN(C(=O)c4ccccc4-c4ccccc4)CC3C2)nc2ccccc12` (centres unmarked) [Example 178, 2-[5-(Biphenyl-2-ylcarbonyl)hexahydropyrrolo[3,4-c]pyrrol-2(1H)-yl]-4-methylquinoline], the Ki was 123 nM.
`COc1ccc(C(=O)N2CC3CN(c4nccc(OC)n4)CC3C2)c(OC)c1` (centres unmarked) [Example 179, (2,4-Dimethoxy-phenyl)-[5-(4-methoxy-pyrimidin-2-yl)-hexahydro-pyrrolo[3,4-c]pyrrol-2-yl]-methanone]: the Ki is 9000 nM.
With `COc1ccccc1C(=O)N1CC2CN(c3nc4ccccc4o3)CC2C1` (centres unmarked) [Example 180, (5-Benzooxazol-2-yl-hexahydro-pyrrolo[3,4-c]pyrrol-2-yl)-(2-methoxy-phenyl)-methanone] the figure was 2300 nM; with `O=C(c1ccccc1-c1cccnc1)N1CC2CN(c3cnc4ccccc4n3)CC2C1` (centres unmarked) [Example 181, (2-Pyridin-3-yl-phenyl)-(5-quinoxalin-2-yl-hexahydro-pyrrolo[3,4-c]pyrrol-2-yl)-methanone], 3560 nM; with `Cc1cc(C)nc(N2CC3CN(C(=O)c4ccccc4-c4ncc[nH]4)CC3C2)n1` (centres unmarked) [Example 182, [5-(4,6-Dimethyl-pyrimidin-2-yl)-hexahydro-pyrrolo[3,4-c]pyrrol-2-yl]-[2-(1H-imidazol-2-yl)-phenyl]-methanone], 2200 nM.
With `COc1ccc(C(=O)N2CC3CN(c4nc5ccccc5o4)CC3C2)c(OC)c1` (centres unmarked) [Example 183, (5-Benzooxazol-2-yl-hexahydro-pyrrolo[3,4-c]pyrrol-2-yl)-(2,4-dimethoxy-phenyl)-methanone] the figure was 5000 nM; with `O=C(c1ccccc1-c1ccccc1)N1CC2CN(c3nc4ccccc4o3)CC2C1` (centres unmarked) [Example 184, (5-Benzooxazol-2-yl-hexahydro-pyrrolo[3,4-c]pyrrol-2-yl)-biphenyl-2-yl-methanone], 1040 nM.
Consider `COc1ccc(C(=O)N2CC3CN(c4cccc(C)n4)CC3C2)c(OC)c1` (centres unmarked) [Example 185, (2,4-Dimethoxy-phenyl)-[5-(6-methyl-pyridin-2-yl)-hexahydro-pyrrolo[3,4-c]pyrrol-2-yl]-methanone], for which the Ki was determined as 9000 nM.
Turning to `COc1ccc(C(=O)N2CC3CN(c4nccc(C)n4)CC3C2)c(OC)c1` (centres unmarked) [Example 186, (2,4-Dimethoxy-phenyl)-[5-(4-methyl-pyrimidin-2-yl)-hexahydro-pyrrolo[3,4-c]pyrrol-2-yl]-methanone], the Ki worked out at 10000 nM.
`COc1ccc2nc(N3CC4CN(C(=O)c5ccccc5-c5ccccc5)CC4C3)sc2c1` (centres unmarked) [Example 187, Biphenyl-2-yl-[5-(6-methoxy-benzothiazol-2-yl)-hexahydro-pyrrolo[3,4-c]pyrrol-2-yl]-methanone]: the Ki is 2280 nM.
With `Cc1ccc2nc(N3CC4CN(C(=O)c5ccccc5-c5ccccc5)CC4C3)sc2c1` (centres unmarked) [Example 188, Biphenyl-2-yl-[5-(6-methyl-benzothiazol-2-yl)-hexahydro-pyrrolo[3,4-c]pyrrol-2-yl]-methanone] the figure was 2610 nM; with `COc1cccc(OC)c1C(=O)N1CC2CN(c3nc4ccc(Cl)cc4s3)CC2C1` (centres unmarked) [Example 189, [5-(6-Chloro-benzothiazol-2-yl)-hexahydro-pyrrolo[3,4-c]pyrrol-2-yl]-(2,6-dimethoxy-phenyl)-methanone], 1600 nM.
The result for `O=C(c1ccccc1-c1ccccc1)N1CC2CN(c3nc4ccc(Cl)cc4s3)CC2C1` (centres unmarked) [Example 190, Biphenyl-2-yl-[5-(6-chloro-benzothiazol-2-yl)-hexahydro-pyrrolo[3,4-c]pyrrol-2-yl]-methanone] reads 1300 nM.
Take `COc1ccc(C(=O)N2CC3CN(c4cnc5ccccc5n4)CC3C2)c(OC)c1` (centres unmarked) [Example 191, (2,4-Dimethoxy-phenyl)-(5-quinoxalin-2-yl-hexahydro-pyrrolo[3,4-c]pyrrol-2-yl)-methanone]: the Ki turned out to be 2660 nM.
In the case of `COc1cccc(OC)c1C(=O)N1CC2CN(c3nc4ccccc4o3)CC2C1` (centres unmarked) [Example 192, (5-Benzooxazol-2-yl-hexahydro-pyrrolo[3,4-c]pyrrol-2-yl)-(2,6-dimethoxy-phenyl)-methanone], the Ki was 1020 nM.
With `Cc1ccc(-c2ccccc2C(=O)N2CC3CN(c4cnc5ccccc5n4)CC3C2)cc1` (centres unmarked) [Example 193, (4′-Methyl-biphenyl-2-yl)-(5-quinoxalin-2-yl-hexahydro-pyrrolo[3,4-c]pyrrol-2-yl)-methanone] the figure was 1160 nM; with `O=C(c1ccccc1-c1ccc(C(F)(F)F)cc1)N1CC2CN(c3cnc4ccccc4n3)CC2C1` (centres unmarked) [Example 194, (5-Quinoxalin-2-yl-hexahydro-pyrrolo[3,4-c]pyrrol-2-yl)-(4′-trifluoromethyl-biphenyl-2-yl)-methanone], 10000 nM.
The result for `Cc1ccc(-c2ccccc2C(=O)N2CC3CN(c4nccc(-c5ccccc5)n4)CC3C2)cc1` (centres unmarked) [Example 195, (4′-Methyl-biphenyl-2-yl)-[5-(4-phenyl-pyrimidin-2-yl)-hexahydro-pyrrolo[3,4-c]pyrrol-2-yl]-methanone] reads 1100 nM.
Take `O=C(c1ccccc1-c1ccc(C(F)(F)F)cc1)N1CC2CN(c3nccc(-c4ccccc4)n3)CC2C1` (centres unmarked) [Example 196, [5-(4-Phenyl-pyrimidin-2-yl)-hexahydro-pyrrolo[3,4-c]pyrrol-2-yl]-(4′-trifluoromethyl-biphenyl-2-yl)-methanone]: the Ki amounted to 10000 nM.
Regarding `COc1ccc(C(=O)N2CC3CN(c4cnc5ccccc5n4)CC3C2)c(C)c1` (centres unmarked) [Example 197, (4-Methoxy-2-methyl-phenyl)-(5-quinoxalin-2-yl-hexahydro-pyrrolo[3,4-c]pyrrol-2-yl)-methanone], the Ki stood at 1160 nM.
Take `O=C(c1ccccc1-c1cccc(Cl)c1)N1CC2CN(c3nccc(-c4ccccc4)n3)CC2C1` (centres unmarked) [Example 198, (3′-Chloro-biphenyl-2-yl)-[5-(4-phenyl-pyrimidin-2-yl)-hexahydro-pyrrolo[3,4-c]pyrrol-2-yl]-methanone]: the Ki stood at 1310 nM.
With `COc1ccnc(N2CC3CN(C(=O)c4ccccc4OC)CC3C2)n1` (centres unmarked) [Example 199, (2-Methoxy-phenyl)-[5-(4-methoxy-pyrimidin-2-yl)-hexahydro-pyrrolo[3,4-c]pyrrol-2-yl]-methanone] the figure was 3780 nM; with `COc1ccccc1C(=O)N1CC2CN(c3nc(C)cc(C)n3)CC2C1` (centres unmarked) [Example 201, [5-(4,6-Dimethyl-pyrimidin-2-yl)-hexahydro-pyrrolo[3,4-c]pyrrol-2-yl]-(2-methoxy-phenyl)-methanone], 1370 nM; with `Cc1cc(C)nc(N2CC3CN(C(=O)c4ccccc4C#N)CC3C2)n1` (centres unmarked) [Example 202, 2-[5-(4,6-Dimethyl-pyrimidin-2-yl)-hexahydro-pyrrolo[3,4-c]pyrrole-2-carbonyl]-benzonitrile], 5000 nM.
As to `Cc1cc(C)nc(N2CC3CN(C(=O)c4cnnc5ccccc45)CC3C2)n1` (centres unmarked) [Example 203, Cinnolin-4-yl-[5-(4,6-dimethyl-pyrimidin-2-yl)-hexahydro-pyrrolo[3,4-c]pyrrol-2-yl]-methanone], the Ki was found to be 5000 nM.
Turning to `Cc1cc(N2CC3CN(C(=O)c4cc(F)ccc4-c4ncccn4)CC3C2)nc(C(F)(F)F)n1` (centres unmarked) [Example 204, (5-Fluoro-2-pyrimidin-2-yl-phenyl)-[5-(6-methyl-2-trifluoromethyl-pyrimidin-4-yl)-hexahydro-pyrrolo[3,4-c]pyrrol-2-yl]-methanone], the Ki is 50 nM.
The result for `Cc1cc(C)nc(N2CC3CN(C(=O)c4ccccc4-n4ccnn4)CC3C2)n1` (centres unmarked) [Example 205, [5-(4,6-Dimethyl-pyrimidin-2-yl)-hexahydro-pyrrolo[3,4-c]pyrrol-2-yl]-(2-[1,2,3]triazol-1-yl-phenyl)-methanone] reads 3190 nM; that for `COc1cc(OC)nc(N2CC3CN(C(=O)c4ncccc4-c4ccccc4)CC3C2)n1` (centres unmarked) [Example 207, [5-(4,6-Dimethoxy-pyrimidin-2-yl)-hexahydro-pyrrolo[3,4-c]pyrrol-2-yl]-(3-phenyl-pyridin-2-yl)-methanone], 9000 nM; that for `Cc1cc(C)nc(N2CC3CN(C(=O)c4ncccc4-c4ccccc4)CC3C2)n1` (centres unmarked) [Example 208, [5-(4,6-Dimethyl-pyrimidin-2-yl)-hexahydro-pyrrolo[3,4-c]pyrrol-2-yl]-(3-phenyl-pyridin-2-yl)-methanone], 2100 nM.
With `CCCc1nc(C)cc(N2CC3CN(C(=O)c4ccccc4-n4nccn4)CC3C2)n1` (centres unmarked) [Example 209, [5-(6-Methyl-2-propyl-pyrimidin-4-yl)-hexahydro-pyrrolo[3,4-c]pyrrol-2-yl]-(2-[1,2,3]triazol-2-yl-phenyl)-methanone] the figure was 9000 nM; with `Cc1nccc(N2CC3CN(C(=O)c4ccccc4-n4nccn4)CC3C2)n1` (centres unmarked) [Example 210, [5-(2-Methyl-pyrimidin-4-yl)-hexahydro-pyrrolo[3,4-c]pyrrol-2-yl]-(2-[1,2,3]triazol-2-yl-phenyl)-methanone], 3000 nM; with `Cc1cncc(N2CC3CN(C(=O)c4ccccc4-n4nccn4)CC3C2)n1` (centres unmarked) [Example 211, [5-(6-Methyl-pyrazin-2-yl)-hexahydro-pyrrolo[3,4-c]pyrrol-2-yl]-(2-[1,2,3]triazol-2-yl-phenyl)-methanone], 44 nM.
With `Cc1cnc(C)c(N2CC3CN(C(=O)c4cc(F)ccc4-c4ncccn4)CC3C2)n1` (centres unmarked) [Example 212, [5-(3,6-Dimethyl-pyrazin-2-yl)-hexahydro-pyrrolo[3,4-c]pyrrol-2-yl]-(5-fluoro-2-pyrimidin-2-yl-phenyl)-methanone] the figure was 33 nM; with `Cc1cnc(C)c(N2CC3CN(C(=O)c4ccccc4-c4ncn[nH]4)CC3C2)n1` (centres unmarked) [Example 213, [5-(3,6-Dimethyl-pyrazin-2-yl)-hexahydro-pyrrolo[3,4-c]pyrrol-2-yl]-[2-(2H-[1,2,4]triazol-3-yl)-phenyl]-methanone], 56 nM.
Turning to `O=C(c1ccccc1-n1nccn1)N1CC2CN(c3cc(C(F)(F)F)nc(N4CCCC4)n3)CC2C1` (centres unmarked) [Example 214, [5-(2-Pyrrolidin-1-yl-6-trifluoromethyl-pyrimidin-4-yl)-hexahydro-pyrrolo[3,4-c]pyrrol-2-yl]-(2-[1,2,3]triazol-2-yl-phenyl)-methanone], the Ki turned out to be 1230 nM.
